Assays:
Format in all cases: cell-based
3R Shaker K channel [1] = target: T1, 3R Shaker K channel (Drosophila melanogaster, UniProt P08510, DEL6-46/M356R/A359R); assay: two-electrode voltage clamp in Xenopus oocytes, G(V) shift at […]
T1 construct: gene Sh

3R Shaker K channel [2] = target: T2, 3R Shaker K channel (Drosophila melanogaster, UniProt P08510, A359R/DEL6-46/M356R); assay: two-electrode voltage clamp in Xenopus oocytes, G(V) shift; also patch clamp in CHO-K1 cells
T2 construct: gene Sh

Shaker K channel (WT) [3] = target: T3, Shaker K channel (WT) (Drosophila melanogaster, UniProt P08510, DEL6-46); assay: two-electrode voltage clamp in Xenopus oocytes, G(V) shift and pH dependence at […]
T3 construct: gene Sh

Shaker K channel (WT) [4] = target: T3, Shaker K channel (WT); assay: two-electrode voltage clamp in Xenopus oocytes, G(V) shift at […]
3R Shaker K channel [5] = target: T2, 3R Shaker K channel; assay: two-electrode voltage clamp in Xenopus oocytes, G(V) shift

T3 sequence (P08510 with tags, fused parts or gaps DEL6-46): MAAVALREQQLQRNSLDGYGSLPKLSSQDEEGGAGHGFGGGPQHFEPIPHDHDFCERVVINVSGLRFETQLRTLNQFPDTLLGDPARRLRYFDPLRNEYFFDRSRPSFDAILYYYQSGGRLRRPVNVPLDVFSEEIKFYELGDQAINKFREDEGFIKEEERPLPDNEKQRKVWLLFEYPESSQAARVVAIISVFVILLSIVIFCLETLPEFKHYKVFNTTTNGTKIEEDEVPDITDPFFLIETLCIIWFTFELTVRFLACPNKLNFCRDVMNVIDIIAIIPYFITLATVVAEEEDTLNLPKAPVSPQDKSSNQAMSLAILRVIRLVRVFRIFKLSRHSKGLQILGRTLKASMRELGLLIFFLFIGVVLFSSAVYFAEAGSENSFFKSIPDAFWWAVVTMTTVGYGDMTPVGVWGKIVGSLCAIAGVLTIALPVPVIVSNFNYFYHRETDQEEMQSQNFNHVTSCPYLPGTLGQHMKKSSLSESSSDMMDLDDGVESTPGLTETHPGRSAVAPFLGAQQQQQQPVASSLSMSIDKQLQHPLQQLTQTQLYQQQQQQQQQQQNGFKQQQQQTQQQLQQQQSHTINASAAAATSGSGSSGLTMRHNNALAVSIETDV
T1 sequence (P08510 with tags, fused parts or gaps DEL6-46/M356R/A359R): as the sequence (P08510 with tags, fused parts or gaps DEL6-46) above, with M315R, A318R counted along it
T2 sequence (P08510 with tags, fused parts or gaps DEL6-46/M356R/A359R): as the sequence (P08510 with tags, fused parts or gaps DEL6-46) above, with M315R, A318R counted along it

Structure (SMILES) | two-electrode voltage clamp in Xenopus oocytes, G(V) shift at 100 μM (3R Shaker K channel [1]) [mV] | EC50 (3R Shaker K channel [2]) [µM] | two-electrode voltage clamp in Xenopus oocytes, G(V) shift at 100 μM (Shaker K channel (WT) [4]) [mV] | also measured
CC(C)C1=CC2=CC[C@@H]3[C@](C)(CCC[C@@]3(C)C(=O)O)[C@H]2CC1 [compound 3, abietic acid] | −11.2 ± 2 |  |  | 
CON=C1C[C@H]2[C@](C)(C(=O)O)CCC[C@]2(C)c2cc(Br)c(C(C)C)cc21 [compound 33, Compound 33] |  | 37 |  | two-electrode voltage clamp in Xenopus oocytes, G(V) shift and pH dependence at (Shaker K channel (WT) [3]): For all three compounds, the induced shifts are smaller on Shaker WT compared to Shaker 3R K channels
C[C@@]1(C(=O)O)CCC[C@]2(C)c3cc(Cl)c(Cl)c(Cl)c3CC[C@@H]12 [compound 77, Compound 77] |  | 37 | −21.2 | 
C=C[C@@]1(C)CC[C@H]2C(=CC[C@@H]3[C@]2(C)CCC[C@@]3(C)C(=O)O)C1 [compound 2, isopimaric acid] | −15.9 ± 1.8 |  |  | 
CC(C)c1ccc2c(c1)CC[C@H]1[C@](C)(C(=O)O)CCC[C@]21C [compound 4, dehydroabietic acid] |  |  | −2.3 | EC50 (3R Shaker K channel [5]): 89 µM
C=CCON=C1C[C@H]2[C@](C)(C(=O)O)CCC[C@]2(C)c2ccc(C(C)C)cc21 [compound 19, Compound 19] | −17.8 ± 1.9 |  |  | 
